According to patent US10656159B2, “Immunoassays of s-adenosylmethionine and methylation index in personalized medicine and health evaluation” (HUNAN SKYWORLD BIOTECHNOLOGIES CO, priority 2013, dated 2020):
“And” between values parts separate entries of the source, which are not always exact repeats. Equal values may be shown once. “Also recorded” adds a separate entry of the source. Blank lines part the entries; values can stand above or below the molecule they belong to.

What was measured:
[1] = system: nucleolar 2-O-methyltransferase; details: cited from earlier work
[2] = Thermal stability of SAM and SAH in human plasma; assay type: in vitro ADME
Experimental: The stability of SAM and SAH at different temperatures, as well as their stability in acid and base environment were tested. The 310 human plasma samples were placed at room temperature for 2 hours. […] The increased SAH was due to de-methylation of SAM in ex vivi situation within a few hours of blood withdrawal.
Results from stability study for different temperature conditions, i.e. 4° C., 15° C. (room temperature), 37° C. and 56° C., were obtained mainly on SAM and partially on SAH measurements. Plasma from 4 individual samples S3, S4, S5 and S6 were used in 4° C., 15° C. and 37° C. experiments.
However, when samples were placed at room temperature (˜15° C.) and 37° C., SAM was degraded rapidly especially at 37° C., SAM degradation rate reached a maximum at about 4-6 hours under 37° C. […] At about 6 hours after blood withdrawal, SAM level was reduced whereas SAH level was increased. The values of SAH were recorded as >1000 nM from 6 hours to 3 days, thus SAH leaks were not shown. The level of SAH was maintained at a high level for about 3 days before it started to drop. SAM level went down continuously. […] It cannot be ruled out that inhibition of SAH converting to other metabolites or degradation also existed causing it to stay high for quite some time. It meant to show the dynamics of SAM and SAH for this particular sample. Difference among samples exists. Samples S1, S2, S3 and S4 were used in 56° C. experiments. The results are shown in FIG. 19F-G. SAM was quickly undetectable in 10 minutes at 56° C., whereas SAH was dramatically degraded in 10 minutes and fully undetectable after about 4 hours at 56° C.

[3] = Dialysis of plasma: free and non-free SAM and SAH; assay type: in vitro ADME, human; details: for Amount left after dialysis: 37° C., 24 hour; for Non-free form left within the dialysis bag: dialysis 15° C., 24 hours, 20 mM phosphate buffer pH 7.4, bag MW 14,000
Experimental: To distinguish whether there are conjugated form of SAM and SAH in human plasma, we used dialysis bags to dialyze plasma samples at different temperature for 24 hours with at least two changes of dialyzing buffer (20 mM PB, pH7.4), then measured the SAM and SAH levels before and after dialysis.
Notice that for those SAH data which were greater than or equal to 1000 nM, only 1000 nM was used in the figure. Therefore, it is obvious that the immunoassays used in this invention can bind free SAM and SAH from human plasma. The differences of SAM or SAH as measured before and after dialysis (20 mM phosphate buffer, pH 7.4) for each sample represented the free SAM or SAH molecules that escaped from the dialysis bag (MW 14,000, Biosharp, USA) into the dialysis buffer, therefore they could not be detected from the sample collected from dialysis bag.
FIGS. 20A and 20B also show the percentages of SAM and SAH that were left within the dialysis bag after dialysis at 15° C. for 24 hours, which represented the amount of non-free SAM and SAH respectively.

[4] = cELISA sensitivity / SAH standard curve; assay type: binding; details: HRP-anti-301-1 1:1000, 0.5 μg/ml BSA-SAH coat
Experimental: The cELISA result from Table 1C with obtained from 0.5 μg/ml BSA-SAH coated micro-titer plate, HRP-anti-301-1 at dilution of 1:1000 in PBS incubation system. Different amounts of coating antigen, antibody, and incubating buffer will give slightly different minimum detection limits.

[5] = Stability of SAM and SAH in plasma at different pH; assay type: in vitro ADME, human; details: for Level at 1 day time point: maximum detection limit 1000 nM; for Effect of pH on degradation: plasma, 15° C., pH 5.5-6.0, 7.0-7.5, 8.0-8.5
Experimental: The stability of SAM and SAH was also tested in acidic and basic conditions at 15° C. Normal mixed plasma sample (S8) (with pH 7.84), samples S1, S2, S3, S4 (pH 7.0-7.5) were used in the experiments. 10 μl 5M HCl was added to 1260 μl plasma to adjust its pH to 5.5-6.0. In another set of samples, 2 μl 5M NaOH was added to 1260 μl plasma to adjust its pH to 8.0-8.5. Before using these acidic or basic samples to conduct the immunoassay, 1.1 μl 5M NaOH was added to 180 μl acidic samples; 0.376 μl 5M HCl was added to 180 μl basic samples to make them neutral. Meanwhile, standards were also added the same amount of acid and base as the samples.
This observation was consistent with a prior publication regarding pH stability of SAM (Parks, L W, et al. jbc.org Aug. 23, 1957). […] However basic environment has a stronger impact than acidic environment. The SAH data at 1 day time point, the SAH levels for pH 7.0-7.5 and pH 5.5-6.0 curves were measured to be greater than 1000 nM. The experiment has maximum detection limit as 1000 nM, only 1000 nM points were plotted, therefore the spikes at 1 day time point could not been see for pH 7.0-7.5 and pH 5.5-6.0 curves. This figure is meant to show the dynamics of SAH level for this particular sample. Difference among samples exists.

[6] = oral, alcoholic liver cirrhosis, versus placebo; cited from earlier work
[7] = 310 human plasma samples, room temperature 2 hours versus 4° C.

SMILES: C[S+](CC[C@H](N)C(=O)[O-])C[C@H]1O[C@@H](n2cnc3c(N)ncnc32)[C@H](O)[C@@H]1O (stereo partly drawn) [(S, S)-SAM-e]
Binding tightness relative to (R, S)-SAM-e [1]: 10 fold

Increase of level [2, 7]: 21.05%±83.31% | Time level was maintained at a high level before it started to drop ([2]; plasma, 15° C.): about 3 days | Time to fully undetectable ([2]; plasma, 56° C.): about 4 hours | Amount left after dialysis [3]: trivial or no SAM and SAH left | Non-free form left within the dialysis bag [3]: around 30% | Level at 1 day time point ([5]; plasma pH 5.5-6.0, 15° C.): greater than 1000 nM | Level at 1 day time point ([5]; plasma pH 7.0-7.5, 15° C.): greater than 1000 nM
SMILES: Nc1ncnc2c1ncn2[C@@H]1O[C@H](CSCC[C@H](N)C(=O)O)[C@@H](O)[C@H]1O [SAH, S-Adenosylhomocysteine]
OD450 ([4]; SAH 3.906 nM): 0.7722 and 0.9144 and 0.7786 | OD450 Mean ([4]; SAH 3.906 nM): 0.8217 | OD450 ([4]; SAH 7.8125 nM): 0.7602 and 0.8113 and 0.7708 | OD450 Mean ([4]; SAH 7.8125 nM): 0.7808 | OD450 ([4]; SAH 15.625 nM): 0.8045 and 0.8273 and 0.7975 | OD450 Mean ([4]; SAH 15.625 nM): 0.8098 | OD450 ([4]; SAH 31.25 nM): 0.7285 and 0.8199 and 0.7545 | OD450 Mean ([4]; SAH 31.25 nM): 0.7676 | OD450 ([4]; SAH 62.5 nM): 0.6055 and 0.7115 and 0.6444 | OD450 Mean ([4]; SAH 62.5 nM): 0.6538 | OD450 ([4]; SAH 125 nM): 0.5421 and 0.6358 and 0.5372 | OD450 Mean ([4]; SAH 125 nM): 0.5717 | OD450 ([4]; SAH 250 nM): 0.4116 and 0.4426 and 0.442 | OD450 Mean ([4]; SAH 250 nM): 0.4321 | Effect of pH on degradation [5]: both acidic and basic environment speeded up plasma SAH degradation; also recorded: Both acid and base increased the speed SAH was degraded

SMILES: C[S+](CC[C@H](N)C(=O)O)C[C@H]1O[C@@H](n2cnc3c(N)ncnc32)[C@H](O)[C@@H]1O (some centres unmarked) [SAM, S-Adenosylmethionine]
Reduction of level [2, 7]: 33.81%±19.43% | Stability ([2]; plasma, 37° C.): reduced quickly in all samples | Time at which degradation rate reached a maximum ([2]; plasma, 37° C.): 4 to 6 h | Stability ([2]; plasma, 56° C.): reduced even faster than at 37 °C | Time to undetectable ([2]; plasma, 56° C.): 10 min | Amount left after dialysis [3]: trivial or no SAM and SAH left | Non-free form left within the dialysis bag [3]: 11-25% | Overall mortality and/or progression to liver transplant [6]: 12% | Effect of pH on degradation [5]: degradation rate increased with pH values; also recorded: Low pH (acidic environment) helped prevent SAM from quick degradation
